Values after ≈ are worked out from the molar mass of the structure shown. Like-named read-outs stand apart in the source and are kept apart here.
Assays:
Assay type in all cases: cell-based, Human
[1] = system: Hep3B cells; assay: MTT assay, drug IC50, parental cells
Procedure: (§1) Human liver cancer cell lines, Hep3B and HepG2, were purchased from American Type Culture Collection (Manassas, Va.). Culture method has been previously described, for example by Ho J C, et al. Hepatology 2008; 47: 1524-1532 and Cheung S T, et al. Clin Cancer Res 2004; 10: 7629-7636. Stable transfectants for GEP overexpression and suppression have also been described. For chemoresistant populations, the Hep3B cells were plated out and selected under various chemotherapeutic agents of various concentrations at 10-fold dilution for 30 days. The highest dose that still had viable cells over the extended selection period was used and the cells expanded for further selection. The one-step selected cells were then plated out again and selected under escalating doses of the respective drug in a 2-fold manner for another 30 days. The two-step selection process could select a population of cells more resistant to chemotherapeutic agents. The cells selected for resistance to doxorubicin were referred to as doxorubicin resistant cells. […] The drug IC50 value was determined by MTT assay. […] Apoptosis was determined by Annexin V-FITC (AV-FLI) and propidium iodide (PI-FL2) staining using flow cytometry. […] For doxorubicin uptake assays, cells were incubated with or without doxorubicin for 24 hours, and doxorubicin content (FL2) was analyzed by flow cytometry. […]

[2] = system: cisplatin resistant cells; assay: MTT assay, drug IC50, cisplatin resistant cells
Procedure: as §1

[3] = system: Hep3B cells; assay: Apoptosis assay, Annexin V/PI flow cytometry; conditions: doxorubicin 0.5 μg/ml, 24 hours, control or with ABCB5 suppression by siRNA
Procedure: (§2) Human liver cancer cell lines, Hep3B and HepG2, were purchased from American Type Culture Collection (Manassas, Va.). Culture method has been previously described, for example by Ho J C, et al. Hepatology 2008; 47: 1524-1532 and Cheung S T, et al. Clin Cancer Res 2004; 10: 7629-7636. Stable transfectants for GEP overexpression and suppression have also been described. For chemoresistant populations, the Hep3B cells were plated out and selected under various chemotherapeutic agents of various concentrations at 10-fold dilution for 30 days. The highest dose that still had viable cells over the extended selection period was used and the cells expanded for further selection. The one-step selected cells were then plated out again and selected under escalating doses of the respective drug in a 2-fold manner for another 30 days. The two-step selection process could select a population of cells more resistant to chemotherapeutic agents. The cells selected for resistance to doxorubicin were referred to as doxorubicin resistant cells. Similarly, the cells selected under cisplatin were referred to as cisplatin resistant cells. The drug IC50 value was determined by MTT assay. For apoptosis assays, cells were incubated with or without chemotherapeutic agents for 24 to 48 hours. Apoptosis was determined by Annexin V-FITC (AV-FLI) and propidium iodide (PI-FL2) staining using flow cytometry. The total apoptotic population included the early apoptotic cells (high MFI of AV but low PI) plus the late apoptotic cells (high MFI of both AV and PI) of the scatter plot. […] For doxorubicin uptake assays, cells were incubated with or without doxorubicin for 24 hours, and doxorubicin content (FL2) was analyzed by flow cytometry. Pilot studies had examined treatment time-points 0, 1, 3, 6 and 24 hours, and the latter three time-points had similar data profiles. […] There was a time-dependent effect, and thus the data charts presented the data of the 24-hour treatment in comparison with the baseline data. […]

[4] = system: GEP overexpression transfectants; assay: Apoptosis assay, Annexin V/PI flow cytometry; conditions: doxorubicin 0.5 μg/ml, 24 hours, control or with ABCB5 suppression by siRNA
Procedure: as §2

[5] = system: doxorubicin resistant cells; assay: Apoptosis assay, Annexin V/PI flow cytometry; conditions: doxorubicin 0.5 μg/ml, 24 hours, control or with ABCB5 suppression by siRNA
Procedure: as §2

[6] = system: Hep3B cells; assay: Doxorubicin uptake assay by flow cytometry; conditions: doxorubicin 0.5 μg/ml, 24 hours, control or with ABCB5 suppression by siRNA
Procedure: as §2

[7] = system: GEP overexpression transfectants; assay: Doxorubicin uptake assay by flow cytometry; conditions: doxorubicin 0.5 μg/ml, 24 hours, control or with ABCB5 suppression by siRNA
Procedure: as §2

[8] = system: doxorubicin resistant cells; assay: Doxorubicin uptake assay by flow cytometry; conditions: doxorubicin 0.5 μg/ml, 24 hours, control or with ABCB5 suppression by siRNA
Procedure: as §2

[9] = system: doxorubicin resistant cells; assay: MTT assay, drug IC50, doxorubicin resistant cells
Procedure: as §1

Row | SMILES | IC50 [1] | increase in resistance compared to parental cells ([2]; cisplatin resistant cells vs parental cells) | IC50 ([2]; cisplatin resistant cells, MTT assay) | net increase in apoptotic populations [3] | net increase in apoptotic populations [4] | net increase in apoptotic populations [5] | IC50 ([1]; Homo sapiens, Hep3B, read-out: IC50) | population with doxorubicin uptake [6] | population with doxorubicin uptake [7] | population with doxorubicin uptake [8] | IC50 ([9]; Homo sapiens, doxorubicin resistant cells, MTT assay) | increase in resistance compared to parental cells ([9]; doxorubicin resistant cells vs parental cells)
1 | N.N.[Cl][Pt][Cl] [cisplatin] | 0.84 µg/mL | more than 10 folds | 8.53 µg/mL | – | – | – | – | – | – | – | – | –
2 | COc1cccc2c1C(=O)c1c(O)c3c(c(O)c1C2=O)C[C@@](O)(C(=O)CO)C[C@@H]3O[C@H]1C[C@H](N)[C@H](O)[C@H](C)O1 [doxorubicin] | – | – | – | 12.5% | 11.3% | 7.7% | 0.11 µg/mL (≈ 0.202 µM) | 76.4% | 55.4% | 31.1% | 1.78 µg/mL (≈ 3.27 µM) | more than 16 folds

From patent publication US20110280862A1, “GEP AND DRUG TRANSPORTER REGULATION, CANCER THERAPY AND PROGNOSIS” (THE UNIVERSITY OF HONG KONG, priority 2010, published 2011)
